Usually IC50 stands for the concentration needed to halve the response being measured.

The target of the first test is T1, PD-1/PD-L1 (Homo sapiens, UniProt Q9NZQ7).
T1 construct: made in house; host or cells: HEK293T
T1 sequence (Q9NZQ7 with tags, fused parts or gaps): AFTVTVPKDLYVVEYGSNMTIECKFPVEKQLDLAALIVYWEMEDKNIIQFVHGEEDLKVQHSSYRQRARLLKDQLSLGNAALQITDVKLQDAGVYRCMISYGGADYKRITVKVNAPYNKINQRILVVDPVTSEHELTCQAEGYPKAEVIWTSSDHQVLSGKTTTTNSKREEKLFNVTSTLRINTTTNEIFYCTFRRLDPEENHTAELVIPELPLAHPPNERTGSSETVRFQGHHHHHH
The experiment in a line: PD-1/PD-L1 Homogenous Time-Resolved Fluorescence (HTRF) binding assay. To be noted: PD-L1-His 10 nM, PD-1-Ig 20 nM; numeric IC50; read-out: Range or IC50. In short, it runs like this: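 Additional pairs run were PD-1-Ig with PD-L2-His (20 & 5 nM) and CD80-His with PD-L1-Ig (100 & 10 nM), all human proteins. Buffer: dPBS plus 0.1% BSA, 0.05% Tween-20; time-resolved FRET read-out via 1 nM Eu-cryptate anti-Ig and 20 nM APC anti-His, final concentrations.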
Regarding `Cc1c(OCCCN2CC[C@@H](O)C2)cccc1-c1cccc(COc2cc(OCc3cncc(C#N)c3)c(CNC(CO)CO)cc2Cl)c1Cl` [Example 2300, (R)-5-((4-chloro-5-((2-chloro-3′-(3-(3-hydroxypyrrolidin-1-yl)propoxy)-2′-methyl-[1,1′-biphenyl]-3-yl)methoxy)-2-(((1,3-dihydroxypropan-2-yl)amino)methyl)phenoxy)methyl)nicotinonitrile], the IC50 amounted to 1.7 nM.
For the compound `Cc1c(OCCCN2CCOCC2)cccc1-c1cccc(COc2cc(OCc3cncc(C#N)c3)c(CN3CCCC[C@H]3C(=O)O)cc2Cl)c1Cl` [Example 2309, (S)-1-(5-chloro-4-((2-chloro-2′-methyl-3′-(3-morpholinopropoxy)-[1,1′-biphenyl]-3-yl)methoxy)-2-((5-cyanopyridin-3-yl)methoxy)benzyl)piperidine-2-carboxylic Acid], the 50% inhibitory concentration (IC50) was determined as 3 nM.

Still in this test, the particulars now being: PD-L1-His 10 nM, PD-1-Ig 20 nM; value given as range class; read-out: Range or IC50.
As to `Cc1c(OCCCNC[C@H](O)CO)cccc1-c1cccc(COc2cc(OCc3cncc(C#N)c3)c(CNC(CO)CO)cc2Cl)c1Cl` [Example 2299, (S)-5-((4-chloro-5-((2-chloro-3′-(3-((2,3-dihydroxypropyl)amino)propoxy)-2′-methyl-[1,1′-biphenyl]-3-yl)methoxy)-2-(((1,3-dihydroxypropan-2-yl)amino)methyl)phenoxy)methyl)nicotinonitrile], the IC50 lay within 0.21 to 10 nM.
For the compound `Cc1c(OCCCN2CCCCC2)cccc1-c1cccc(COc2cc(OCc3cncc(C#N)c3)c(CNC(CO)CO)cc2Cl)c1Cl` [Example 2301, 5-((4-chloro-5-((2-chloro-2′-methyl-3′-(3-(piperidin-1-yl)propoxy)-[1,1′-biphenyl]-3-yl)methoxy)-2-(((1,3-dihydroxypropan-2-yl)amino)methyl)phenoxy)methyl)nicotinonitrile], the IC50 lay within 0.21 to 10 nM.
Turning to `Cc1c(OCCCN2CC[C@@H](O)C2)cccc1-c1cccc(COc2cc(OCc3cncc(C#N)c3)c(CN3CCCC[C@H]3C(=O)O)cc2Cl)c1Cl` [Example 2302, (S)-1-(5-chloro-4-((2-chloro-3′-(3-((R)-3-hydroxypyrrolidin-1-yl)propoxy)-2′-methyl-[1,1′-biphenyl]-3-yl)methoxy)-2-((5-cyanopyridin-3-yl)methoxy)benzyl)piperidine-2-carboxylic Acid], the IC50 fell in the range of 0.21 to 10 nM.
Same read-out and setting: to `Cc1c(OCCCNC[C@H](O)CO)cccc1-c1cccc(COc2cc(OCc3cncc(C#N)c3)c(CN3CCCC[C@H]3C(=O)O)cc2Cl)c1Cl` [Example 2303, (S)-1-(5-chloro-4-((2-chloro-3′-(3-(((S)-2,3-dihydroxypropyl)amino)propoxy)-2′-methyl-[1,1′-biphenyl]-3-yl)methoxy)-2-((5-cyanopyridin-3-yl)methoxy)benzyl)piperidine-2-carboxylic Acid] belongs 0.21 to 10 nM; to `Cc1c(OCCCN2CC[C@H](O)C2)cccc1-c1cccc(COc2cc(OCc3cncc(C#N)c3)c(CN3CCCC[C@H]3C(=O)O)cc2Cl)c1Cl` [Example 2304, (S)-1-(5-chloro-4-((2-chloro-3′-(3-((S)-3-hydroxypyrrolidin-1-yl)propoxy)-2′-methyl-[1,1′-biphenyl]-3-yl)methoxy)-2-((5-cyanopyridin-3-yl)methoxy)benzyl)piperidine-2-carboxylic Acid], 0.21 to 10 nM; to `Cc1c(OCCCN2CC[C@@H](O)C2)cccc1-c1cccc(COc2cc(OCc3cncc(C#N)c3)c(CNC(C)(CO)CO)cc2Cl)c1Cl` [Example 2305, (R)-5-((4-chloro-5-((2-chloro-3′-(3-(3-hydroxypyrrolidin-1-yl)propoxy)-2′-methyl-[1,1′-biphenyl]-3-yl)methoxy)-2-(((1,3-dihydroxy-2-methylpropan-2-yl)amino)methyl)phenoxy)methyl)nicotinonitrile], 0.21 to 10 nM.
Same read-out and setting: the same measure for `Cc1c(OCCCN2CCCCC2)cccc1-c1cccc(COc2cc(OCc3cncc(C#N)c3)c(CN3CCCC[C@H]3C(=O)O)cc2Cl)c1Cl` [Example 2306, (S)-1-(5-chloro-4-((2-chloro-2′-methyl-3′-(3-(piperidin-1-yl)propoxy)-[1,1′-biphenyl]-3-yl)methoxy)-2-((5-cyanopyridin-3-yl)methoxy)benzyl)piperidine-2-carboxylic Acid]: 0.21 to 10 nM; for `Cc1c(OCCCNC[C@H](O)CO)cccc1-c1cccc(COc2cc(OCc3cncc(C#N)c3)c(CNC(C)(CO)CO)cc2Cl)c1Cl` [Example 2307, (S)-5-((4-chloro-5-((2-chloro-3′-(3-((2,3-dihydroxypropyl)amino)propoxy)-2′-methyl-[1,1′-biphenyl]-3-yl)methoxy)-2-(((1,3-dihydroxy-2-methylpropan-2-yl)amino)methyl)phenoxy)methyl)nicotinonitrile]: 0.21 to 10 nM.
With `Cc1c(OCCCN2CCCCC2)cccc1-c1cccc(COc2cc(OCc3cncc(C#N)c3)c(CNC(C)(CO)CO)cc2Cl)c1Cl` [Example 2308, 5-((4-chloro-5-((2-chloro-2′-methyl-3′-(3-(piperidin-1-yl)propoxy)-[1,1′-biphenyl]-3-yl)methoxy)-2-(((1,3-dihydroxy-2-methylpropan-2-yl)amino)methyl)phenoxy)methyl)nicotinonitrile], the IC50 is 0.21 to 10 nM.
Same read-out and setting: the same measure for `Cc1c(OCCCN2CCS(=O)(=O)CC2)cccc1-c1cccc(COc2cc(OCc3cncc(C#N)c3)c(CN3CCCC[C@H]3C(=O)O)cc2Cl)c1Cl` [Example 2310, (S)-1-(5-chloro-4-((2-chloro-3′-(3-(1,1-dioxidothiomorpholino)propoxy)-2′-methyl-[1,1′-biphenyl]-3-yl)methoxy)-2-((5-cyanopyridin-3-yl)methoxy)benzyl)piperidine-2-carboxylic Acid]: 0.21 to 10 nM.
The same measure, in the same setting: to `CC(=O)N[C@H]1CCN(CCCOc2cccc(-c3cccc(COc4cc(OCc5cncc(C#N)c5)c(CNC(CO)CO)cc4Cl)c3Cl)c2C)C1` [Example 2311, (S)—N-(1-(3-((2′-chloro-3′-((2-chloro-5-((5-cyanopyridin-3-yl)methoxy)-4-(((1,3-dihydroxypropan-2-yl)amino)methyl)phenoxy)methyl)-2-methyl-[1,1′-biphenyl]-3-yl)oxy)propyl)pyrrolidin-3-yl)acetamide] belongs 0.21 to 10 nM; to `Cc1c(OCCCN2CC[C@@H](O)C2)cccc1-c1cccc(COc2cc(OCc3cncc(C#N)c3)c(CN(CCc3cncc(C#N)c3)C(CO)CO)cc2Cl)c1Cl` [Example 2312, (R)-5-(2-((5-chloro-4-((2-chloro-3′-(3-(3-hydroxypyrrolidin-1-yl)propoxy)-2′-methyl-[1,1′-biphenyl]-3-yl)methoxy)-2-((5-cyanopyridin-3-yl)methoxy)benzyl)(1,3-dihydroxypropan-2-yl)amino)ethyl)nicotinonitrile], 0.21 to 10 nM.
Turning to `C=CCOc1cc(OCc2cccc(-c3cccc(OCCCN4CC[C@@H](O)C4)c3C)c2Cl)c(Cl)cc1CNC(CO)CO` [Example 2313, (R)-2-((2-(allyloxy)-5-chloro-4-((2-chloro-3′-(3-(3-hydroxypyrrolidin-1-yl)propoxy)-2′-methyl-[1,1′-biphenyl]-3-yl)methoxy)benzyl)amino)propane-1,3-diol], the IC50 fell in the range of 0.21 to 10 nM.
On to `Cc1c(OCCCN2CC[C@@H](O)C2)cccc1-c1cccc(COc2cc(OCC#N)c(CNC(CO)CO)cc2Cl)c1Cl` [Example 2314, (R)-2-(4-chloro-5-((2-chloro-3′-(3-(3-hydroxypyrrolidin-1-yl)propoxy)-2′-methyl-[1,1′-biphenyl]-3-yl)methoxy)-2-(((1,3-dihydroxypropan-2-yl)amino)methyl)phenoxy)acetonitrile], for which the half-inhibitory concentration (IC50) is 0.21 to 10 nM.
On the same count and under the same terms, the same measure for `Cc1c(OCCCN2CC[C@@H](O)C2)cccc1-c1cccc(COc2cc(OCC(=N)N3CC[C@@H](O)C3)c(CNC(CO)CO)cc2Cl)c1Cl` [Example 2315, 2-((5-chloro-4-((2-chloro-3′-(3-((R)-3-hydroxypyrrolidin-1-yl)propoxy)-2′-methyl-[1,1′-biphenyl]-3-yl)methoxy)-2-(2-((R)-3-hydroxypyrrolidin-1-yl)-2-iminoethoxy)benzyl)amino)propane-1,3-diol]: 0.21 to 10 nM; for `Cc1c(OCCCN2CC[C@@H](O)C2)cccc1-c1cccc(COc2cc(OCC(N)=O)c(CNC(CO)CO)cc2Cl)c1Cl` [Example 2316, (R)-2-(4-chloro-5-((2-chloro-3′-(3-(3-hydroxypyrrolidin-1-yl)propoxy)-2′-methyl-[1,1′-biphenyl]-3-yl)methoxy)-2-(((1,3-dihydroxypropan-2-yl)amino)methyl)phenoxy)acetamide]: 0.21 to 10 nM.
As to `Cc1c(OCCCN2CC[C@@H](O)C2)cccc1-c1cccc(COc2cc(OCC(=O)N(C)C)c(CNC(CO)CO)cc2Cl)c1Cl` [Example 2317, (R)-2-(4-chloro-5-((2-chloro-3′-(3-(3-hydroxypyrrolidin-1-yl)propoxy)-2′-methyl-[1,1′-biphenyl]-3-yl)methoxy)-2-(((1,3-dihydroxypropan-2-yl)amino)methyl)phenoxy)-N,N-dimethylacetamide], the half-inhibitory concentration (IC50) fell in the range of 0.21 to 10 nM.
As for `Cc1c(OCCCN2CC[C@@H](O)C2)cccc1-c1cccc(COc2cc(OCC(F)F)c(CNC(CO)CO)cc2Cl)c1Cl` [Example 2318, (R)-2-((5-chloro-4-((2-chloro-3′-(3-(3-hydroxypyrrolidin-1-yl)propoxy)-2′-methyl-[1,1′-biphenyl]-3-yl)methoxy)-2-(2,2-difluoroethoxy)benzyl)amino)propane-1,3-diol], the 50% inhibitory concentration (IC50) was 0.21 to 10 nM.
On the same count and under the same terms, to `Cc1c(OCCCN2CC[C@@H](O)C2)cccc1-c1cccc(COc2cc(OCC3CC3)c(CNC(CO)CO)cc2Cl)c1Cl` [Example 2319, (R)-2-((5-chloro-4-((2-chloro-3′-(3-(3-hydroxypyrrolidin-1-yl)propoxy)-2′-methyl-[1,1′-biphenyl]-3-yl)methoxy)-2-(cyclopropylmethoxy)benzyl)amino)propane-1,3-diol] belongs 0.21 to 10 nM.

These data come from US10745382B2 (BRISTOL-MYERS SQUIBB COMPANY, priority 2015, dated 2020).
